What was measured:
[1] = test system: Rattus norvegicus; test: Anti-inflammatory activity in Rattus norvegicus Wistar (rat) assessed as inhibition of carrageenan-induced paw edema at 160 mg/kg, po administered 30 min prior to carrageenan challenge measured at 4 hr relative to control; type: functional
[2] = test system: Mus musculus; test: Toxicity in Mus musculus Swiss albino (mouse) assessed as abnormal changes in eyes at 500 to 2000 mg/kg, po measured after 14 days; type: organism-based; set-up: dose 500-2000 mg/kg, route oral; conditions: in vivo, 336 h
[3] = test system: Mus musculus; test: Toxicity in Mus musculus Swiss albino (mouse) assessed as mortality at 500 to 2000 mg/kg, po measured after 14 days; type: organism-based; set-up: dose 500-2000 mg/kg, route oral; conditions: in vivo, 336 h
[4] = test system: Mus musculus; test: Analgesic activity in Mus musculus Swiss albino (mouse) assessed as inhibition of acetic acid-induced writhing at 160 mg/kg, po administered 30 min prior challenge measured after 5 min of challenge for next 30 min relative to control; type: functional
[5] = test system: Mus musculus; test: Toxicity in Mus musculus Swiss albino (mouse) assessed as abnormal changes in fur at 500 to 2000 mg/kg, po measured after 14 days; type: organism-based; set-up: dose 500-2000 mg/kg, route oral; conditions: in vivo, 336 h
[6] = test system: Mus musculus; test: Toxicity in Mus musculus Swiss albino (mouse) assessed as abnormal changes in skin at 500 to 2000 mg/kg, po measured after 14 days; type: organism-based; set-up: dose 500-2000 mg/kg, route oral; conditions: in vivo, 336 h
[7] = test system: Mus musculus; test: Toxicity in Mus musculus Swiss albino (mouse) assessed as changes in behavioral pattern at 500 to 2000 mg/kg, po measured after 14 days; type: organism-based; set-up: dose 500-2000 mg/kg, route oral; conditions: in vivo, 336 h
[8] = test system: Rattus norvegicus; test: Anti-inflammatory activity in Rattus norvegicus Wistar (rat) assessed as inhibition of carrageenan-induced paw edema at 10 mg/kg, po administered 30 min prior to carrageenan challenge measured at 4 hr relative to control; type: functional
[9] = test system: Mus musculus; test: Analgesic activity in Mus musculus Swiss albino (mouse) assessed as inhibition of acetic acid-induced writhing at 10 mg/kg, po administered 30 min prior challenge measured after 5 min of challenge for next 30 min relative to control; type: functional

Row | SMILES | inhibition in vivo at 160 mg/kg [1] [%] | Activity [2] | Activity [3] | inhibition in vivo at 160 mg/kg [4] [%] | Activity [5] | Activity [6] | Activity [7] | inhibition in vivo at 10 mg/kg [8] [%] | inhibition in vivo at 10 mg/kg [9] [%]
1 | CN(C)c1ccc(/C=C/C(=O)c2ccc(Br)cc2)cc1 | 54.5 | Non-toxic | Non-toxic | 31.9 | Non-toxic | Non-toxic | Non-toxic |  | 
2 | COc1ccc2c(c1)c(CC(=O)O)c(C)n2C(=O)c1ccc(Cl)cc1 [INDOMETHACIN] |  |  |  |  |  |  |  | 79.3 | 
3 | CN(C)c1ccc(/C=C/C(=O)c2ccc(-c3ccccc3)cc2)cc1 | 58.7 | Non-toxic | Non-toxic | 72.9 | Non-toxic | Non-toxic | Non-toxic |  | 
4 | O=C(/C=C/c1ccccc1)c1ccc(-c2ccccc2)cc1 | 68.4 | Non-toxic | Non-toxic | 71.5 | Non-toxic | Non-toxic | Non-toxic |  | 
5 | COc1cc(/C=C/C(=O)c2ccc(-c3ccccc3)cc2)cc(OC)c1OC | 78.7 | Non-toxic | Non-toxic | 85.4 | Non-toxic | Non-toxic | Non-toxic |  | 
6 | COc1ccc(C(=O)/C=C/c2ccc(N(C)C)cc2)cc1 | 69.8 | Non-toxic | Non-toxic | 47.9 | Non-toxic | Non-toxic | Non-toxic |  | 
7 | O=C(/C=C/c1ccc(F)cc1)c1ccc(-c2ccccc2)cc1 | 76.8 | Non-toxic | Non-toxic | 56.5 | Non-toxic | Non-toxic | Non-toxic |  | 
8 | O=C(/C=C/c1ccccc1Cl)c1ccc(-c2ccccc2)cc1 | 61.9 | Non-toxic | Non-toxic | 85.1 | Non-toxic | Non-toxic | Non-toxic |  | 
9 | COc1cc(/C=C/C(=O)c2ccc(-c3ccccc3)cc2)cc(OC)c1 | 63.2 | Non-toxic | Non-toxic | 84.7 | Non-toxic | Non-toxic | Non-toxic |  | 
10 | COc1ccc(/C=C/C(=O)c2ccc(Br)cc2)cc1 | 67.7 | Non-toxic | Non-toxic | 70.8 | Non-toxic | Non-toxic | Non-toxic |  | 
11 | COc1ccc(C(=O)/C=C/c2ccccc2O)cc1 | 76.1 | Non-toxic | Non-toxic | 50.7 | Non-toxic | Non-toxic | Non-toxic |  | 
12 | COc1ccc(C(=O)/C=C/c2ccc(O)c(OC)c2)cc1 | 80 | Non-toxic | Non-toxic | 89.6 | Non-toxic | Non-toxic | Non-toxic |  | 
13 | O=C(/C=C/c1ccc(O)cc1)c1ccc(-c2ccccc2)cc1 | 74.8 | Non-toxic | Non-toxic | 66.7 | Non-toxic | Non-toxic | Non-toxic |  | 
14 | CC(=O)Oc1ccccc1C(=O)O [ASPIRIN] |  |  |  |  |  |  |  |  | 88.9
15 | COc1ccc(C(=O)/C=C/c2ccc(Cl)cc2)cc1 | 77.6 | Non-toxic | Non-toxic | 48.6 | Non-toxic | Non-toxic | Non-toxic |  | 
16 | O=C(/C=C/c1ccoc1)c1ccc(-c2ccccc2)cc1 | 52.9 | Non-toxic | Non-toxic | 51.4 | Non-toxic | Non-toxic | Non-toxic |  | 
17 | O=C(/C=C/c1ccc(Cl)cc1)c1ccc(-c2ccccc2)cc1 | 52.9 | Non-toxic | Non-toxic | 74.3 | Non-toxic | Non-toxic | Non-toxic |  | 
18 | COc1ccc(C(=O)/C=C/c2ccccc2)cc1 [4'-METHOXYCHALCONE] | 69.8 | Non-toxic | Non-toxic | 25.7 | Non-toxic | Non-toxic | Non-toxic |  | 
19 | COc1ccc(/C=C/C(=O)c2ccc(OC)cc2)cc1 [4,4'-DIMETHOXYCHALCONE] | 72.9 | Non-toxic | Non-toxic | 87.5 | Non-toxic | Non-toxic | Non-toxic |  | 
20 | O=C(/C=C/c1ccccc1[N+](=O)[O-])c1ccc(-c2ccccc2)cc1 | 45.2 | Non-toxic | Non-toxic | 40.3 | Non-toxic | Non-toxic | Non-toxic |  | 
21 | O=C(/C=C/c1ccccc1O)c1ccc(-c2ccccc2)cc1 | 80.6 | Non-toxic | Non-toxic | 75.7 | Non-toxic | Non-toxic | Non-toxic |  | 
22 | COc1ccc(/C=C/C(=O)c2ccc(-c3ccccc3)cc2)cc1 | 74.8 | Non-toxic | Non-toxic | 83.3 | Non-toxic | Non-toxic | Non-toxic |  | 
